In one test the test system is SH-SY5Y cells. As to the kind of experiment: sAPPβ release assay.
The target of the next test is T1, Human BACE1 (Homo sapiens, UniProt P56817).
T1 construct: the soluble part of the human β-Secretase1 (AA1-AA460) was cloned using the BACE1(1-460)-(AVT)-Fc-pGEN-IRES-neo mammalian expression vector; AVT linker (C); made in house
As to the kind of experiment: Diluted TR-FRET assay. The test is classed as biochemical. As to conditions: 50 times less enzyme, 6.5 h reaction time at r.t.; read-out: IC50 BACE1 (dil. TR-FRET). On the procedure:
(§1) The β-secretase enzyme used in the TR-FRET was prepared as follows:
(§2) Human BACE1: the cDNA for the soluble part of the human β-Secretase1 (AA1-AA460) was cloned using the BACE1(1-460)-(AVT)-Fc-pGEN-IRES-neo mammalian expression vector. The gene was fused to the Fe domain of IgG1 (affinity tag) and stably cloned into HEK 293 cells. […]
A multidrop Combi was used for the liquid handling. Enzyme (7 μL) was added to the compound plate (containing 0.8 μL of compound in dimethylsulphoxide). The plate was incubated for 10 minutes. […] The reaction was stopped with the addition of Stop solution (5.5 μL, NaOAC, pH 9). Fluorescence was measured on a Pherastar plate reader using HTRF module. […] 5 reference inhibitors with different affinities were used at all screen occasions in dose response.
Background: TR-FRET usually uses a lanthanide donor and a delayed reading to cut background.

For a further test, the target named is T2, Human BACE2 (Homo sapiens, UniProt Q9Y5Z0).
T2 construct: the soluble part of the human β-Secretase2 (AA1-AA473) was cloned using BACE2(1-473)-(AVT)-Fc-pDEST12.2 mammalian expression vector; AVT linker (C); made in house
T2 sequence (Q9Y5Z0 21-473): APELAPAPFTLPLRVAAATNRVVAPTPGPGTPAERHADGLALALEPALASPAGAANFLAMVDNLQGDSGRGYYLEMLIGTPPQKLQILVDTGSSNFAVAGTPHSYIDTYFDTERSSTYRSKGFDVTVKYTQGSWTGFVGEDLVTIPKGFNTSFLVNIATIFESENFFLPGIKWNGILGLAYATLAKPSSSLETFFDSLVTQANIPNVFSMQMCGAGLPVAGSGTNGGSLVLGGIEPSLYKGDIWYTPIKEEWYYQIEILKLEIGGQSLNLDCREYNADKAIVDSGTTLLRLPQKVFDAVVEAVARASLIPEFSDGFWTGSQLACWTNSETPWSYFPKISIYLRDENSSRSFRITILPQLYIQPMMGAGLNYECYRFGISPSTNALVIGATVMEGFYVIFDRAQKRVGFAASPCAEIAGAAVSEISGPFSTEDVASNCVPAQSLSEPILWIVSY
As to the kind of experiment: TR-FRET assay. Format: biochemical. The note with it: substrate 100 nM, pH4.5. The procedure: as §1, §2
A multidrop Combi was used for the liquid handling. Enzyme (7 μL) was added to the compound plate (containing 0.8 μL of compound in dimethylsulphoxide). The plate was incubated for 10 minutes. Substrate (8 μL) was then added, and the reaction proceeded for 17 minutes at r.t. The reaction was stopped with the addition of Stop solution (5.5 μL, NaOAC, pH 9). Fluorescence was measured on a Pherastar plate reader using HTRF module. […] 5 reference inhibitors with different affinities were used at all screen occasions in dose response.

[1] abbreviates: Homo sapiens, SH-SY5Y, read-out: IC50 Cell (sAPPβ release, nM), SH-SY5Y cells, compounds incubated 16-17 h.

Like-named read-outs stand apart in the source and are kept apart here.

The results in this text go back to US10053453B2, “Compounds and their use as BACE inhibitors” (AstraZeneca AB, priority 2014, dated 2018).

T1 sequence (P56817 22-460): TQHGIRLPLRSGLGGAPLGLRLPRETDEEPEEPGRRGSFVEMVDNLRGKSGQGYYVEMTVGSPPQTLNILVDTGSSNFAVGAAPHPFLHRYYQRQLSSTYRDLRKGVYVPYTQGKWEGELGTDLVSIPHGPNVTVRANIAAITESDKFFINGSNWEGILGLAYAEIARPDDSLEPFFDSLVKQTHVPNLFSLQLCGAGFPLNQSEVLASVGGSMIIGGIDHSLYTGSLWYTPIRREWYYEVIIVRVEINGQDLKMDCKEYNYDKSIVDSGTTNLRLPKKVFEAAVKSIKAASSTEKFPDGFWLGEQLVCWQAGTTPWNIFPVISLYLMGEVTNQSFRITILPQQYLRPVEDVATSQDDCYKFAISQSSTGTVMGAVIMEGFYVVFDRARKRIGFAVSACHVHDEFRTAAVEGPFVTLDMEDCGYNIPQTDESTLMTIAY

For the compound `[2H]C1([2H])OC(N)=N[C@]12c1cc(-c3cc(F)cc(C#N)c3)ccc1C[C@@]21CC[C@H](OC)[C@@H](C)C1` [Compound 19, 3-((1S,1′R,3S,4S)-2″-amino-4-methoxy-3-methyl-3′H,5″H-dispiro[cyclohexane-1,2′-indene-1′,4″-oxazol]-6′-yl-5″,5″-d2)-5-fluorobenzonitrile], the IC50 – broadly, the concentration needed to halve the response being measured – turned out to be 2 nM in the test on SH-SY5Y cells (setting [1]), 244 nM at Human BACE1 and 43.6 nM on Human BACE2 (enzyme 2.7 μg/mL).

As to `[2H]C1([2H])OC(N)=N[C@]12c1cc(-c3cncc(C)c3)ccc1C[C@]21CC[C@@H](OC)[C@H](C)C1` [Compound 20, (1R,1′R,3R,4R)-4-methoxy-3-methyl-6′-(5-methylpyridin-3-yl)-3′H,5″H-dispiro[cyclohexane-1,2′-indene-1′,4″-oxazol]-5″,5″-d2-2″-amine], the IC50 was found to be 2.9 nM in the test with SH-SY5Y cells (setting [1]), 143 nM at Human BACE1 and 186 nM against Human BACE2 (enzyme 2.7 μg/mL).

With `[2H]C1([2H])OC(N)=NC12c1cc(-c3cncc(C)c3)ccc1C[C@@]21CC[C@H](OC)[C@@H](C)C1` (stereo partly drawn) [Compound 21, (1S,3S,4S)-4-methoxy-3-methyl-6′-(5-methylpyridin-3-yl)-3′H,5″H-dispiro[cyclohexane-1,2′-indene-1′,4″-oxazol]-5″,5″-d2-2″-amine], the figures for the IC50 in the test with SH-SY5Y cells (setting [1]), on Human BACE1 and against Human BACE2 (enzyme 2.7 μg/mL) were 1.6 nM, 67 nM and 256 nM, respectively.

For `[2H]C1([2H])OC(N)=N[C@]12c1cc(-c3cc(C#N)cc(OC)c3)ccc1C[C@@]21CC[C@H](OC)[C@@H](C)C1` [Compound 23, 3-((1S,1′R,3S,4S)-2″-amino-4-methoxy-3-methyl-3′H,5″H-dispiro[cyclohexane-1,2′-indene-1′,4″-oxazol]-6′-yl-5″,5″-d2)-5-methoxybenzonitrile], the IC50 is 1.5 nM in the test on SH-SY5Y cells (setting [1]), 7.3 nM on Human BACE1 and 21.4 nM on Human BACE2 (enzyme 2.7 μg/mL).

`[2H]C1([2H])OC(N)=N[C@]12c1cc(-c3cc(C#N)cc(OC)c3)ccc1C[C@]21CC[C@@H](OC)[C@H](C)C1` [Compound 24, 3-((1R,1′R,3R,4R)-2″-amino-4-methoxy-3-methyl-3′H,5″H-dispiro[cyclohexane-1,2′-indene-1′,4″-oxazol]-6′-yl-5″,5″-d2)-5-methoxybenzonitrile]: the results for the IC50 with SH-SY5Y cells (setting [1]), on Human BACE1 and against Human BACE2 (enzyme 2.7 μg/mL) were 3.2 nM, 18 nM and 18 nM, respectively.

For the compound `[2H]C1([2H])OC(N)=N[C@]12c1cc(-c3cncc(C(F)(F)F)c3)ccc1C[C@@]21CC[C@H](OC)[C@@H](C)C1` [Compound 26], the IC50 with SH-SY5Y cells (setting [1]) is 2.6 nM; at Human BACE1 it was 19.6 nM; against Human BACE2 (enzyme 2.7 μg/mL) it was 78.4 nM.

With `[2H]C1([2H])OC(N)=N[C@]12c1cc(-c3cccc(Cl)c3)ccc1C[C@@]21CC[C@H](OC)[C@@H](C)C1` [Compound 27], the concentration for half-maximal inhibition (IC50) in the test on SH-SY5Y cells (setting [1]) was found to be 2.8 nM; at Human BACE1, 12 nM; on Human BACE2 (enzyme 2.7 μg/mL) it was 24.7 nM.

As for `[2H]C1([2H])OC(N)=N[C@]12c1cc(-c3cncc(C)c3)ccc1C[C@@]21CC[C@H](OC)[C@@H](C)C1` [Compound 28], the IC50 came out at 1.6 nM with SH-SY5Y cells (setting [1]), 67 nM on Human BACE1 and 255 nM on Human BACE2 (enzyme 2.7 μg/mL).

As to `[2H]C1([2H])OC(N)=N[C@]12c1cc(-c3cncc(C(F)(F)F)c3)ccc1C[C@]21CC[C@@H](OC)[C@H](C)C1` [Compound 29, (1R,1′R,3R,4R)-4-methoxy-3-methyl-6′-(5-(trifluoromethyl)pyridin-3-yl)-3′H,5″H-dispiro[cyclohexane-1,2′-indene-1′,4″-oxazol]-5″,5″-d2-2″-amine], the figures for the half-inhibitory concentration (IC50) with SH-SY5Y cells (setting [1]), at Human BACE1 and at Human BACE2 (enzyme 2.7 μg/mL) were 2.6 nM, 55.7 nM and 79.2 nM, respectively.

Regarding `CO[C@H]1[C@H](C)C[C@@]2(Cc3ccc(-c4cncc(C#N)c4)cc3[C@@]23COC(N)=N3)C[C@@H]1C` [Compound 31, 5-((1r,3R,4r,5S)-2″-amino-4-methoxy-3,5-dimethyl-3′H,5″H-dispiro[cyclohexane-1,2′-indene-1′,4″-oxazol]-6′-yl)nicotinonitrile], the half-maximal inhibitory concentration (IC50) with SH-SY5Y cells (setting [1]) was 2.4 nM; at Human BACE1, 24.3 nM; on Human BACE2 (enzyme 2.7 μg/mL), 90.8 nM.

Turning to `[2H]C1([2H])OC(N)=NC12c1cc(-c3cc(C#N)cc(OC)c3)ccc1C[C@@]21C[C@@H](C)[C@H](OC)[C@@H](C)C1` (stereo partly drawn) [Compound 32, 3-((1r,3R,4r,5S)-2″-amino-4-methoxy-3,5-dimethyl-3′H,5″H-dispiro[cyclohexane-1,2′-indene-1′,4″-oxazol]-6′-yl-5″,5″-d2)-5-methoxybenzonitrile], the IC50 in the test on SH-SY5Y cells (setting [1]) came to 2.8 nM; at Human BACE1, 7.3 nM; against Human BACE2 (enzyme 2.7 μg/mL) it was 26.2 nM.

As for `[2H]C1([2H])OC(N)=N[C@]12c1cc(-c3cncc(Cl)c3)ccc1C[C@]21CC[C@@H](OC)[C@H](C)C1` [Compound 34, (1R,1′R,3R,4R)-6′-(5-chloropyridin-3-yl)-4-methoxy-3-methyl-3′H,5″H-dispiro[cyclohexane-1,2′-indene-1′,4″-oxazol]-5″,5″-d2-2″-amine], the IC50 in the test on SH-SY5Y cells (read-out: IC50 Cell (sAPPβ release), SH-SY5Y cells, compounds incubated 16-17 h) was found to be 0.5 nM; at Human BACE1, 11.7 nM; at Human BACE2 (enzyme […]), 22.7 nM.

Take `[2H]C1([2H])OC(N)=N[C@]12c1cc(-c3cccc(Cl)c3)ccc1C[C@]21CC[C@@H](OC)[C@H](C)C1` [Compound 37, (1R,1′R,3R,4R)-6′-(3-chlorophenyl)-4-methoxy-3-methyl-3′H,5″H-dispiro[cyclohexane-1,2′-indene-1′,4″-oxazol]-5″,5″-d2-2″-amine]: the values for the IC50 in the test with SH-SY5Y cells (setting [1]), on Human BACE1 and against Human BACE2 (enzyme 2.7 μg/mL) were 3.7 nM, 12.8 nM and 17.4 nM, respectively.

With `CO[C@H]1CC[C@]2(CC1)Cc1ccc(-c3cncc(C#N)c3)cc1[C@@]21COC(N)=N1` [Compound 38, 5-((1r,1′R,4R)-2″-amino-4-methoxy-3′H,5″H-dispiro[cyclohexane-1,2′-indene-1′,4″-oxazol]-6′-yl)nicotinonitrile], the figures for the IC50 with SH-SY5Y cells (setting [1]), at Human BACE1 and against Human BACE2 (enzyme 2.7 μg/mL) were 4.3 nM, 166 nM and 315 nM, respectively.

With `[2H]C1([2H])OC(N)=NC12c1cc(-c3cc(Cl)cc(C#N)c3)ccc1C[C@@]21C[C@@H](C)[C@H](OC)[C@@H](C)C1` (stereo partly drawn) [Compound 39, 3-((1r,3R,4r,5S)-2″-amino-4-methoxy-3,5-dimethyl-3′H,5″H-dispiro[cyclohexane-1,2′-indene-1′,4″-oxazol]-6′-yl-5″,5″-d2)-5-chlorobenzonitrile], the results for the half-inhibitory concentration (IC50) in the test with SH-SY5Y cells (setting [1]), on Human BACE1 and against Human BACE2 (enzyme 2.7 μg/mL) were 4.3 nM, 4.7 nM and 50.7 nM, respectively.

`[2H]C1([2H])OC(N)=NC12c1cc(C([2H])([2H])C([2H])([2H])C(C)C)ccc1C[C@@]21C[C@@H](C)[C@H](OC)[C@@H](C)C1` (stereo partly drawn) [Compound 40, (1r,3R,4r,5S)-4-methoxy-3,5-dimethyl-6′-(3-methylbutyl-1,1,2,2-d4)-3′H,5″H-dispiro[cyclohexane-1,2′-indene-1′,4″-oxazol]-5″,5″-d2-2″-amine]: the IC50 in the test with SH-SY5Y cells (setting [1]) was determined as 4.4 nM; at Human BACE1 it was 32.9 nM; against Human BACE2 (enzyme 2.7 μg/mL), 118 nM.

Regarding `CO[C@H]1CC[C@]2(CC1)Cc1ccc(-c3cncc(C(F)(F)F)c3)cc1C21COC(N)=N1` (stereo partly drawn) [Compound 42, (1r,4r)-4-methoxy-6′-(5-(trifluoromethyl)pyridin-3-yl)-3′H,5″H-dispiro[cyclohexane-1,2′-indene-1′,4″-oxazol]-2″-amine], the IC50 stood at 7.3 nM in the test on SH-SY5Y cells (setting [1]), 307 nM at Human BACE1 and 221 nM on Human BACE2 (enzyme 2.7 μg/mL).

`[2H]C1([2H])OC(N)=NC12c1cc(CCC(C)C)ccc1C[C@@]21C[C@@H](C)[C@H](OC)[C@@H](C)C1` (stereo partly drawn) [Compound 43, (1r,3R,4r,5S)-6′-isopentyl-4-methoxy-3,5-dimethyl-3′H,5″H-dispiro[cyclohexane-1,2′-indene-1′,4″-oxazol]-5″,5″-d2-2″-amine]: the values for the IC50 with SH-SY5Y cells (setting [1]), on Human BACE1 and against Human BACE2 (enzyme 2.7 μg/mL) were 7.5 nM, 13.6 nM and 194 nM, respectively.
